From patent US20250313572A1, “MACROCYCLIC MCL-1 INHIBITORS AND METHODS OF USE” (AbbVie Inc., priority 2017, published 2025) come the findings set out here.

One assay deals with GST-MCL-1 (Homo sapiens, UniProt Q07820). As to the kind of experiment: TR-FRET MCL-1 binding assay (competition with probe F-Bak). The procedure:
Tb-anti-GST antibody was purchased from Invitrogen (Catalog No. PV4216).
For the assay, an acoustic dispenser was used to prepare dilution series from 10 mM test compounds in 100% DMSO and directly transfer 160 nL into low volume 384-well assay plates. 8 μL of a protein/probe/antibody mix was then added to each well resulting in final concentrations listed below: • Test compound: 11 three-fold dilutions beginning at 25 μM
The samples were then mixed on a shaker for 1 minute and incubated for an additional 2 hours at room temperature. For each assay plate, a probe/antibody and protein/antibody/probe mixture were included as a negative and a positive control, respectively. Fluorescence was measured on the Envision (Perkin Elmer) using a 340/35 nm excitation filter and 520/525 (F-Bak) and 495/510 nm (Tb-labeled anti-his antibody) emission filters. […] The TR-FRET assay can be performed in the presence of varying concentrations of human serum (HS) or fetal bovine serum (FBS). Compounds were tested both without HS and in the presence of 10% HS.
A general note: In TR-FRET formats the signal depends on donor and acceptor labels being close together.

The subject of assay [1] is AMO-1 human multiple myeloma tumor cell line. In words: AMO-1 cell viability assay (CellTiter-Glo, 24 hours). It is filed as cell-based. For orientation: ATP-based viability assays read luminescence as a measure of living cells.
Description: Each concentration was tested in duplicate at least 3 independent times. A luminescent signal proportional to the number of viable cells following 24 hours of compound treatment was determined using the CellTiter-Glo® Luminescent Cell Viability Assay according to the manufacturer's recommendations (Promega Corp., Madison, WI). The plates were read in a Perkin Elmer Envision using a Luminescence protocol. To generate dose response curves the data is normalized to percent viability by setting the averages of the staurosporine (10 μM) and DMSO only control wells to 0% and 100% viability respectively.
Assay [2] relates to NCI-H929 human multiple myeloma tumor cell line. As to the kind of experiment: NCI-H929 cell viability assay (CellTiter-Glo, 24 hours). It is filed as cell-based.
[3] abbreviates: MCL-1 Binding Ki (nM, 10% HS), in the presence of 10% HS (human serum).
[4] abbreviates: without HS, read-out: MCL-1 Binding Ki.
Where [5] appears, read: Homo sapiens, AMO1, 24 h, read-out: AMO-1 Viability IC50 (μM, 10% FBS), 10% FBS, 24 hours of compound treatment.
Setting [6] is: Homo sapiens, NCI-H929, 24 h, read-out: H929 Viability IC50 (μM, 10% FBS), 10% FBS, 24 hours of compound treatment.
The mark [7] stands for this setting: read-out: AMO-1 Viability IC50 (μM, 10% FBS), 10% FBS, 24 hours of compound treatment.
The mark [8] stands for this setting: read-out: H929 Viability IC50 (μM, 10% FBS), 10% FBS, 24 hours of compound treatment.

Where two headings read alike, the source gives them in different places.

Sequence of GST-MCL-1 (Q07820 whole entry): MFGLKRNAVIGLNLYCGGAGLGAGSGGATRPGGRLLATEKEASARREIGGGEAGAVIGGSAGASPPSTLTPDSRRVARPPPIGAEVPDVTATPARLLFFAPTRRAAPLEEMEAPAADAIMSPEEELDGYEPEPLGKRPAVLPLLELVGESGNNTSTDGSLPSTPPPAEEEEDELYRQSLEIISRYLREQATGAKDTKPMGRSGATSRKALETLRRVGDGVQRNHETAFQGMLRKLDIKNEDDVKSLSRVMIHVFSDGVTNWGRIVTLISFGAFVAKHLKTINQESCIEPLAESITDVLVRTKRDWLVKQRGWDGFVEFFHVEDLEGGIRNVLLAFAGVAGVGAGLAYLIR

Turning to `Cc1c2ccc(c1Cl)O[C@H](CN1CCN(C)CC1)COc1ccc(OCc3ccnc(-c4ccccc4C(=O)O)n3)c(c1)C[C@H](C(=O)O)Oc1ncnc3sc(-c4ccc(F)cc4)c-2c13` (atropisomer, axis not shown) [Example 19, (7R,16R)-10-{[2-(2-carboxyphenyl)pyrimidin-4-yl]methoxy}-19-chloro-1-(4-fluorophenyl)-20-methyl-16-[(4-methylpiperazin-1-yl)methyl]-7,8,15,16-tetrahydro-18,21-etheno-13,9-(metheno)-6,14,17-trioxa-2-thia-3,5-diazacyclononadeca[1,2,3-cd]indene-7-carboxylic Acid], the Ki on GST-MCL-1 (setting [3]) worked out at 0.069 nM; at GST-MCL-1 (setting [4]), 0.006 nM. The half-maximal inhibitory concentration (IC50) in assay [1] (setting [5]) is 0.0963 µM; in assay [2] (setting [6]) it was 0.365 µM.

As to `COCCOCCOCCC1CCN(C[C@@H]2COc3ccc(OCc4ccnc(-c5ccccc5OC)n4)c(c3)C[C@H](C(=O)O)Oc3ncnc4sc(-c5ccc(F)cc5)c(c34)-c3ccc(c(Cl)c3C)O2)CC1` (atropisomer, axis not shown) [Example 21, (7R,16R,21S)-19-chloro-1-(4-fluorophenyl)-16-[(4-{2-[2-(2-methoxyethoxy)ethoxy]ethyl}piperidin-1-yl)methyl]-10-{[2-(2-methoxyphenyl)pyrimidin-4-yl]methoxy}-20-methyl-7,8,15,16-tetrahydro-18,21-etheno-13,9-(metheno)-6,14,17-trioxa-2-thia-3,5-diazacyclononadeca[1,2,3-cd]indene-7-carboxylic Acid], the inhibition constant Ki amounted to 0.556 nM on GST-MCL-1 (setting [3]) and 0.059 nM on GST-MCL-1 (setting [4]). Moreover, the IC50 stood at 0.0143 µM in assay [1] (setting [7]) and 0.0102 µM in assay [2] (setting [8]).

On to `Cc1c2ccc(c1Cl)O[C@H](CN1CCN(C)CC1)COc1ccc(OCc3ccnc(-c4ccccc4OCC(=O)O)n3)c(c1)C[C@H](C(=O)O)Oc1ncnc3sc(-c4ccc(F)cc4)c-2c13` (atropisomer, axis not shown) [Example 24, (7R,16R,21S)-10-({2-[2-(carboxymethoxy)phenyl]pyrimidin-4-yl}methoxy)-19-chloro-1-(4-fluorophenyl)-20-methyl-16-[(4-methylpiperazin-1-yl)methyl]-7,8,15,16-tetrahydro-18,21-etheno-13,9-(metheno)-6,14,17-trioxa-2-thia-3,5-diazacyclononadeca[1,2,3-cd]indene-7-carboxylic Acid], for which the Ki on GST-MCL-1 (setting [3]) came out at 0.098 nM; at GST-MCL-1 (setting [4]), 0.015 nM. The figures for the 50% inhibitory concentration (IC50) in assay [1] (setting [5]) and in assay [2] (setting [6]) were 0.0385 µM and 0.157 µM, respectively.

As to `COCCOCCOCCC1CCN(C[C@@H]2COc3ccc(OCc4ccnc(-c5ccccc5OC)n4)c(c3)C[C@H](C(=O)O)Oc3ncnc4sc(-c5ccc(F)cc5)c(c34)-c3ccc(c(Cl)c3C)O2)CC1` (atropisomer, axis not shown) [Example 27, (7R,16R,21R)-19-chloro-1-(4-fluorophenyl)-16-[(4-{2-[2-(2-methoxyethoxy)ethoxy]ethyl}piperidin-1-yl)methyl]-10-{[2-(2-methoxyphenyl)pyrimidin-4-yl]methoxy}-20-methyl-7,8,15,16-tetrahydro-18,21-etheno-13,9-(metheno)-6,14,17-trioxa-2-thia-3,5-diazacyclononadeca[1,2,3-cd]indene-7-carboxylic Acid], the Ki at GST-MCL-1 (setting [3]) is 22 nM; on GST-MCL-1 (setting [4]) it was 0.987 nM. The half-inhibitory concentration (IC50) in assay [1] (setting [7]) was found to be 0.314 µM; in assay [2] (setting [8]) it was 0.319 µM.

As to `COCCOCCOCCOCCOC[C@@H]1CCCC[C@H]1c1nccc(COc2ccc3cc2C[C@H](C(=O)O)Oc2ncnc4sc(-c5ccc(F)cc5)c(c24)-c2c(C)c(Cl)c(c(Cl)c2C)O[C@H](CN2CCN(C)CC2)CO3)n1` (relative stereo) [Example 120, (7R,16R)-19,23-dichloro-1-(4-fluorophenyl)-20,22-dimethyl-16-[(4-methylpiperazin-1-yl)methyl]-10-({2-[(1R*,2R*)-2-(2,5,8,11,14-pentaoxapentadecan-1-yl)cyclohexyl]pyrimidin-4-yl}methoxy)-7,8,15,16-tetrahydro-18,21-etheno-13,9-(metheno)-6,14,17-trioxa-2-thia-3,5-diazacyclononadeca[1,2,3-cd]indene-7-carboxylic Acid], the Ki on GST-MCL-1 (setting [4]) is 26.3 nM. For the same compound, the IC50 in assay [1] (setting [5]) turned out to be 0.000231 µM; in assay [2] (setting [6]), 0.000386 µM.

For `COCCOCCOCCOCCOC[C@H]1CCCC[C@@H]1c1nccc(COc2ccc3cc2C[C@H](C(=O)O)Oc2ncnc4sc(-c5ccc(F)cc5)c(c24)-c2c(C)c(Cl)c(c(Cl)c2C)O[C@H](CN2CCN(C)CC2)CO3)n1` (relative stereo) [Example 124, (7R,16R)-19,23-dichloro-1-(4-fluorophenyl)-20,22-dimethyl-16-[(4-methylpiperazin-1-yl)methyl]-10-({2-[(1S*,2S*)-2-(2,5,8,11,14-pentaoxapentadecan-1-yl)cyclohexyl]pyrimidin-4-yl}methoxy)-7,8,15,16-tetrahydro-18,21-etheno-13,9-(metheno)-6,14,17-trioxa-2-thia-3,5-diazacyclononadeca[1,2,3-cd]indene-7-carboxylic Acid], the inhibition constant (Ki) at GST-MCL-1 (setting [3]) is 0.145 nM; at GST-MCL-1 (setting [4]), 0.012 nM. The IC50 in assay [1] (setting [5]) was 0.000355 µM; in assay [2] (setting [6]), 0.000818 µM.

`COCCOCCOC[C@@]1(F)CC=C(c2nccc(COc3ccc4cc3C[C@H](C(=O)O)Oc3ncnc5sc(C6=CCCC6)c(c35)-c3c(C)c(Cl)c(c(Cl)c3C)O[C@H](CN3CCN(C)CC3)CO4)n2)CC1` (relative stereo) [Example 135, (7R,16R)-19,23-dichloro-1-(cyclopent-1-en-1-yl)-10-({2-[(4S*)-4-fluoro-4-{[2-(2-methoxyethoxy)ethoxy]methyl}cyclohex-1-en-1-yl]pyrimidin-4-yl}methoxy)-20,22-dimethyl-16-[(4-methylpiperazin-1-yl)methyl]-7,8,15,16-tetrahydro-18,21-etheno-13,9-(metheno)-6,14,17-trioxa-2-thia-3,5-diazacyclononadeca[1,2,3-cd]indene-7-carboxylic Acid]: the values for the Ki on GST-MCL-1 (setting [3]) and at GST-MCL-1 (setting [4]) were 0.489 nM and 0.029 nM, respectively. Moreover, the half-inhibitory concentration (IC50) in assay [1] (setting [5]) was found to be 0.000191 µM; in assay [2] (setting [6]), 0.000591 µM.

As for `Cc1c(Cl)c2c(Cl)c(C)c1-c1c(-c3ccc(F)cc3)sc3ncnc(c13)O[C@@H](C(=O)O)Cc1cc(ccc1OCc1ccnc(C3=CCC(CC(=O)O)CC3)n1)OC[C@@H](CN1CCN(C)CC1)O2` (single isomer, unassigned) [Example 35, (7R,16R)-10-({2-[(4S*)-4-(carboxymethyl)cyclohex-1-en-1-yl]pyrimidin-4-yl}methoxy)-19,23-dichloro-1-(4-fluorophenyl)-20,22-dimethyl-16-[(4-methylpiperazin-1-yl)methyl]-7,8,15,16-tetrahydro-18,21-etheno-13,9-(metheno)-6,14,17-trioxa-2-thia-3,5-diazacyclononadeca[1,2,3-cd]indene-7-carboxylic Acid], the inhibitory constant (Ki) worked out at 0.113 nM on GST-MCL-1 (setting [3]) and 0.007 nM at GST-MCL-1 (setting [4]). For the same compound, the half-maximal inhibitory concentration (IC50) in assay [1] (setting [5]) stood at 0.01 µM; in assay [2] (setting [6]), 0.017 µM.

As for `Cc1c(Cl)c2c(Cl)c(C)c1-c1c(-c3ccc(F)cc3)sc3ncnc(c13)O[C@@H](C(=O)O)Cc1cc(ccc1OCc1ccnc(C3=CCC(CC(=O)O)CC3)n1)OC[C@@H](CN1CCN(C)CC1)O2` (single isomer, unassigned) [Example 37, (7R,16R)-10-({2-[(4R*)-4-(carboxymethyl)cyclohex-1-en-1-yl]pyrimidin-4-yl}methoxy)-19,23-dichloro-1-(4-fluorophenyl)-20,22-dimethyl-16-[(4-methylpiperazin-1-yl)methyl]-7,8,15,16-tetrahydro-18,21-etheno-13,9-(metheno)-6,14,17-trioxa-2-thia-3,5-diazacyclononadeca[1,2,3-cd]indene-7-carboxylic Acid], the inhibitory constant (Ki) at GST-MCL-1 (setting [3]) was 0.124 nM; at GST-MCL-1 (setting [4]), 0.009 nM. In addition, the results for the half-maximal inhibitory concentration (IC50) in assay [1] (setting [7]) and in assay [2] (setting [8]) were 0.0096 µM and 0.0167 µM, respectively.

For the compound `COCCOCCOCCOCCOCCOCC1(C)CC=C(c2nccc(COc3ccc4cc3C[C@H](C(=O)O)Oc3ncnc5sc(-c6ccc(F)cc6)c(c35)-c3c(C)c(Cl)c(c(Cl)c3C)O[C@H](CN3CCN(C)CC3)CO4)n2)CC1` (single isomer, unassigned) [Example 85, (7R,16R)-19,23-dichloro-1-(4-fluorophenyl)-10-({2-[(4S*)-4-(2,5,8,11,14,17-hexaoxaoctadecan-1-yl)-4-methylcyclohex-1-en-1-yl]pyrimidin-4-yl}methoxy)-20,22-dimethyl-16-[(4-methylpiperazin-1-yl)methyl]-7,8,15,16-tetrahydro-18,21-etheno-13,9-(metheno)-6,14,17-trioxa-2-thia-3,5-diazacyclononadeca[1,2,3-cd]indene-7-carboxylic Acid], the Ki at GST-MCL-1 (setting [3]) stood at 0.191 nM; at GST-MCL-1 (setting [4]), 0.029 nM. The concentration for half-maximal inhibition (IC50) in assay [1] (setting [7]) was 0.000198 µM; in assay [2] (setting [8]), 0.000485 µM.

What is called Ki is a measure of affinity in units of concentration, obtained from inhibition or displacement. One may read the IC50 as the concentration that inhibits the measured activity by half.
